In patent publication US10052304B2, “Compositions and methods for cancer therapy” (UNIVERSITY OF IOWA RESEARCH FOUNDATION, priority 2015, dated 2018):

What was measured:
Type in all cases: cell-based, human
[1] = tested on: OPM2; test: Colony formation on soft agar, OPM2 myeloma cells; settings: 1 h treatment, colonies after 10-14 days
From the text: A two-layer agar system was used, and colonies were visualized after 10-14 days.

[2] = tested on: HBEpCs; test: Intracellular H2O2 with PeroxyOrange-1, HBEpCs; settings: ascorbate 15 pmol cell^−1
Protocol: To visualize intracellular H2O2 levels, the selectively sensitive fluorescent probe PeroxyOrange-1 was utilized as previously described with modifications (Dickinson et al., 2010). 1×10^5 cells were plated and grown in their respective media for 48 h. The complete protocol was conducted in the dark with minimal ambient lighting. Cells were washed with PBS and incubated with 10 uM PO-1 in phenol red free RPMI supplemented with HBE growth supplements for 1 h at 37° C. Cells were then washed in PBS and placed back in phenol red free RPMI supplemented with HBE growth supplements. […] At times indicated, cells were placed on ice for the remainder of the protocol, washed, and trypsinized with phenol red free 0.5% trypsin. After 15 min, cells still attached were scraped and all cells were collected in 15 mL conical vials containing PBS+10% FBS to neutralize the trypsin reaction. Cells were spun at 1200 rpm for 5 min at 4° C., resuspended in 300-500 uL PBS and were run on a LSR II Flow Cytometer (BD Biosciences) with λex=561 nm, λem=585/20 nm. The mean fluorescence intensity (MFI) was analyzed (FlowJo™) and corrected for autoflourescence against unlabeled cells. Normalized MFI was calculated by comparing MFI for a given treatment group against control.

[3] = tested on: HBEpCs; test: Cellular labile iron pool (Calcein-AM flow cytometry), HBEpCs; settings: increasing doses of ascorbate
Protocol: The labile iron pool (LIP) was visualized using the fluorescent dye Calcein-AM as previously described (Epsztejn et al., 1997) with modifications. After labeling, samples were divided into two flow cytometry sample tubes, to which 100 μM 2′,2′-bipyridyl (BIP) was added to one tube and analyzed by flow cytometry. BIP tubes were incubated for at least 15 minutes before analysis to allow for full chelation of intracellular labile iron. The LIP (A.U.)=MFIBIP−MFINoBIP was normalized against the control samples to calculate the relative labile iron pool.
The labile iron pool (LIP) was visualized using the fluorescent dye Calcein-AM as previously described with modifications (Epsztejn et al., 1997). Briefly, after sample treatment, cells were trypsinized, spun at 1,200 rpm for 5 min, and resuspended at approximately 1×10^6 cells mL-1 in 500 nM Calcein-AM in PBS. Samples were incubated for 15 min at 4% O2 in a humidity controlled environment (37° C., 5% CO2). Subsequently, samples were pelleted, washed in PBS, and resuspended in 1 mL PBS before dividing each sample into two flow cytometry sample tubes, to which 100 μM 2′,2′-bipyridyl (BIP) was added to one tube. Samples were kept at room temperature and analyzed on a LSR II Flow Cytometer (BD Biosciences; λex=488 nm, λem=515/20 nm). […]

[4] = tested on: aconitase; test: Total cellular aconitase activity after ascorbate exposure; settings: 15 pmol cell^−1 ascorbate for 1 h, NSCLC cell lysates
Protocol: (§1) Exponentially growing cells were scraped and frozen as dry pellets until assayed for total activity. Aconitase activity was measured as the rate of appearance of NADPH (at 340 nm; Beckman DU 800 spectrophotometer, Brea, Calif.) for 45 min during the reaction of 200 μg total sample protein with 200 μM NADP^+ and 10 U isocitrate dehydrogenase as previously described (Case et al., 2011). Maximal ETC complex activity was measured as previously described (Birch-Machin et al., 1994). Complex I activity was quantified as the rate of rotenone-inhibitable NADH oxidation (320 nm; c=6.22 mM^−1 cm^−1). Complex II activity as the difference in the rate of DCIP reduction in the presence and absence of succinate (at 600 nm; ε=19.1 mM^−1 cm^−1). Complex IV activity was assayed as the rate of oxidation of cytochrome c ([…]; ε=19.6 mM^−1 cm^−1). Rates of activities were normalized to total protein by Lowry.
Exponentially growing cells were scraped and frozen as dry pellets until assayed for total aconitase activity adapted from as previously described (Case et al., 2011). […] Protein was quantified by the Lowry method (Lowry et al., 1951). Aconitase activity was measured as the rate of appearance of NADPH (at 340 nm; Beckman DU 800 spectrophotometer, Brea, Calif.) for 45 min during the reaction of 200 μg total sample protein with 200 μM NADP+ and 10 U isocitrate dehydrogenase.

[5] = tested on: ETC complex I; test: ETC complex I activity after ascorbate exposure; settings: 15 pmol cell^−1 ascorbate for 1 h, NSCLC cell lysates
Protocol: as §1
Exponentially growing cells were scraped and frozen as dry pellets until assayed for protein content (Lowry) and maximal ETC complex activity as previously described (Birch-Machin et al., 1994). Briefly, dry cell pellets were resuspended in 20 mM potassium phosphate buffer and sonicated 3×10 s each. Rates of activities were normalized to total protein. Complex I activity was quantified as the rate of rotenone-inhibitable NADH oxidation (320 nm; ε=6.22 mM-1 cm-1). […]

O=C1O[C@H]([C@@H](O)CO)C(O)=C1O [ascorbate, L-ascorbic acid]
ascorbate dose giving complete growth inhibition (colony formation) [1]: ≥ 10 pmol/cell
steady-state levels of H2O2 (PeroxyOrange-1) [2]: unchanged
cellular LIP after ascorbate [3]: not seen
aconitase activity [4]: inactivation
ETC complex I activity [5]: inactivation
